Here are results for five molecules from patent US8906826B2, “Herbicidal compositions comprising 4-amino-3-chloro-5-fluoro-6-(4-chloro-2-fluoro-3-methoxyphenyl) pyridine-2-carboxylic acid or a derivative thereof and imidazolinones” (Dow AgroSciences, LLC, priority 2012, dated 2014).

Assay [1] deals with CYPIR. The assay can be described thus: Postemergence foliar-applied, direct seeded rice weeds (Example I). The class given is in vivo, Cyperus iria L. An excerpt: Seeds or nutlets of the desired test plant species were planted in a soil matrix prepared by mixing a loam or sandy loam soil (e.g., 28.6 percent silt, 18.8 percent clay, and 52.6 percent sand, with a pH of about 5.8 and an organic matter content of about 1.8 percent) and calcareous grit in an 80 to 20 ratio. The soil matrix was contained in plastic pots with a volume of 1 quart and a surface area of 83.6 cm^2. When required to ensure good germination and healthy plants, a fungicide treatment and/or other chemical or physical treatment was applied. The plants were grown for 8-22 days in a greenhouse with an approximate 14 h photoperiod which was maintained at about 29° C. during the day and 26° C. during the night. Nutrients (Peters Excel® 15-5-15 5-Ca 2-Mg and iron chelate) were applied in the irrigation solution as needed and water was added on a regular basis. Supplemental lighting was provided with overhead metal halide 1000-Watt lamps as necessary. The plants were employed for testing when they reached the first through fourth true leaf stage.
Treatments consisted of the acid or esters of 4-amino-3-chloro-5-fluoro-6-(4-chloro-2-fluoro-3-methoxy-phenyl)pyridine-2-carboxylic acid (Compound A), each formulated as an SC (suspension concentrate), and various herbicidal components alone and in combination. Forms of compound A were applied on an acid equivalent basis.
Other herbicidal components were applied on an acid equivalent basis and include acetolactate synthase (ALS)-inhibiting herbicides (imidazolinone chemical class) imazethapyr ammonium salt formulated as Newpath®, imazamox ammonium salt formulated as Beyond®, imazapic ammonium salt formulated as Plateau®, imazapyr isopropylamine salt formulated as Arsenal®, imazamethabenz-methyl (technical material) and imazaquin isopropylamine salt formulated as Scepter®/Imagine®.
Treatment requirements were calculated based upon the rates being tested, the concentration of active ingredient or acid equivalent in the formulation, and a 12 mL application volume at a rate of 187 L/ha.
For treatments comprised of formulated compounds, measured amounts of compounds were placed individually in 25 mL glass vials and diluted in a volume of 1.25% (v/v) Agri-Dex® crop oil concentrated to obtain 12× stock solutions. […] Application solutions were prepared by adding an appropriate amount of each stock solution (e.g., 1 mL) and diluted to the appropriate final concentrations with the addition of 10 mL of an aqueous mixture of 1.25% (v/v) crop oil concentrate so that the final spray solutions contained 1.25+/−0.05% (v/v) crop oil concentrate.
For treatments comprised of technical compounds, weighed amounts can be placed individually in 25 mL glass vials and dissolved in a volume of 97:3 v/v acetone/DMSO to obtain 12× stock solutions. […] Application solutions can be prepared by adding an appropriate amount of each stock solution (e.g., 1 mL) and diluted to the appropriate final concentrations with the addition of 10 mL of an aqueous mixture of 1.5% (v/v) crop oil concentrate so that the final spray solutions contain 1.25% (v/v) crop oil concentrate. When technical materials are used, the concentrated stock solutions can be added to the spray solutions so that the final acetone and DMSO concentrations of the application solutions are 16.2% and 0.5%, respectively.
For treatments comprised of formulated and technical compounds, weighed amounts of the technical materials were placed individually in 25 mL glass vials and dissolved in a volume of 97:3 v/v acetone/DMSO to obtain 12× stock solutions, and measured amounts of the formulated compounds were placed individually in 25 mL glass vials and diluted in a volume of 1.5% (v/v) crop oil concentrate or water to obtain 12× stock solutions. […]

Assay [2] concerns ECHOR. The assay can be described thus: In-water applied, transplanted paddy rice weeds (Example II). It is filed as in vivo, Echinochloa oryzoides (Ard.) Fritsch. The method, then: Weed seeds or nutlets of the desired test plant species were planted in puddled soil (mud) prepared by mixing a shredded, non-sterilized mineral soil (50.5 percent silt, 25.5 percent clay, and 24 percent sand, with a pH of about 7.6 and an organic matter content of about 2.9 percent) and water at a 1:1 volumetric ratio. The prepared mud was dispensed in 365 mL aliquots into 16-ounce (oz.) non-perforated plastic pots with a surface area of 86.59 square centimeters (cm^2) leaving a headspace of 3 centimeters (cm) in each pot. Mud was allowed to dry overnight prior to planting or transplanting. Rice seeds were planted in Sun Gro MetroMix® 306 planting mixture, which typically has a pH of about 6.0 to about 6.8 and an organic matter content of about 30 percent, in plastic plug trays. Seedlings at the second or third leaf stage of growth were transplanted into 860 mL of mud contained in 32-oz. non-perforated plastic pots with a surface area of 86.59 cm^2 4 days prior to herbicide application. The paddy was created by filling the headspace of the pots with 2.5 to 3 cm of water. When required to ensure good germination and healthy plants, a fungicide treatment and/or other chemical or physical treatment was applied. The plants were grown for 4-22 days in a greenhouse with an approximate 14 h photoperiod which was maintained at about 29° C. during the day and about 26° C. during the night. Nutrients were added as Osmocote® (19:6:12, N:P:K+minor nutrients) at 2 g per 16-oz. pot and 4 g per 32-oz. pot. Water was added on a regular basis to maintain the paddy flood, and supplemental lighting was provided with overhead metal halide 1000-Watt lamps as necessary. The plants were employed for testing when they reached the first through fourth true leaf stage.
Treatments consisted of the acid or esters of 4-amino-3-chloro-5-fluoro-6-(4-chloro-2-fluoro-3-methoxy-phenyl)pyridine-2-carboxylic acid (compound A) each formulated as an SC and various herbicidal components alone and in combination. Forms of compound A were applied on an acid equivalent basis.
Other herbicidal components were applied on an acid equivalent basis and included the acetolactate synthase (ALS)-inhibiting imidazolinone herbicides imazethapyr ammonium salt formulated as Newpath®, imazamox ammonium salt formulated as Beyond®, imazapic ammonium salt formulated as Plateau®, imazapyr isopropylamine salt formulated as Arsenal®, imazamethabenz-methyl (technical material), and imazaquin isopropylamine salt formulated as Scepter®.
Treatment requirements for each compound or herbicidal component were calculated based upon the rates being tested, the concentration of active ingredient or acid equivalent in the formulation, an application volume of 2 mL per component per pot, and an application area of 86.59 cm^2 per pot.
For formulated compounds, a measured amount was placed in an individual 100 or 200 mL glass vial and was dissolved in a volume of 1.25% (v/v) Agri-Dex® crop oil concentrate to obtain application solutions.
For technical grade compounds, a weighed amount was placed in an individual 100 to 200 mL glass vial and was dissolved in a volume of acetone to obtain concentrated stock solutions. […] The concentrated stock solutions obtained were diluted with an equivalent volume of an aqueous mixture containing 2.5% (v/v) crop oil concentrate so that the final application solutions contained 1.25% (v/v) crop oil concentrate.
Applications were made by injecting with a pipetter appropriate amounts of the application solutions, individually and sequentially, into the aqueous layer of the paddy. Control plants were treated in the same manner with the solvent blank. Applications were made so that all treated plant material received the same concentrations of acetone and crop oil concentrate.
The treated plants and control plants were placed in a greenhouse as described above and water was added as needed to maintain a paddy flood. […]

[3] abbreviates: Compound A Benzyl Ester 8.75 gae/ha.

The structures appear in SMILES notation. Values joined by “and” are separate entries in the source; they are usually repeats but may differ in a detail not shown here. Equal entries are not always repeated.

Consider `COCc1cnc(C2=NC(C)(C(C)C)C(=O)N2)c(C(=O)O)c1.N` (racemic) [Imazamox ammonium, ammonium (±)-2-[4,5-dihydro-4-methyl-4-(1-methylethyl)-5-oxo-1H-imidazol-2-yl]-5-(methoxymethyl)-3-pyridinecarboxylate], for which the “Visual Weed Control (%) - 25 DAA CYPIR Obs” value in assay [1] (Imazamox ammonium 11.2 gae/ha) is 20%; in assay [1] (Imazamox ammonium 22.4 gae/ha) it was 70%. Besides, the “Visual Weed Control (%) - 25 DAA ECHOR Obs” value in assay [2] (Imazamox ammonium 5.6 gae/ha), in assay [2] (Imazamox ammonium 11.2 gae/ha) and in assay [2] (Imazamox ammonium 22.4 gae/ha) was 0% in each case.
On to `Cc1cnc(C2=NC(C)(C(C)C)C(=O)N2)c(C(=O)O)c1.N` (racemic) [Imazapic ammonium, ammonium (±)-2-[4,5-dihydro-4-methyl-4-(1-methylethyl)-5-oxo-1H-imidazol-2-yl]-5-methyl-3-pyridinecarboxylic acid], for which, in assay [1] (Imazapic ammonium 7 gae/ha), the “Visual Weed Control (%) - 22 DAA CYPIR Obs” value is 20%. For the same molecule, the “Visual Weed Control (%) - 25 DAA ECHOR Obs” value in assay [2] (Imazapic ammonium 4.38 gae/ha), in assay [2] (Imazapic ammonium 8.75 gae/ha) and in assay [2] (Imazapic ammonium 17.5 gae/ha) was 0% throughout. In addition, in assay [2] (Imazapic ammonium 17.5 gae/ha), the “Visual Weed Control (%) - 25 DAA CHOR Obs” value amounted to 0%. Further, the “Visual Weed Control (%) - 19 DAA ECHOR Obs” value in assay [2] (Imazapic ammonium 35 gae/ha) was 78%.
On to `CCc1cnc(C2=NC(C)(C(C)C)C(=O)N2)c(C(=O)O)c1.N` (racemic) [Imazethapyr ammonium, ammonium (±)-2-[4,5-dihydro-4-methyl-4-(1-methylethyl)-5-oxo-1H-imidazol-2-yl]-5-ethyl-3-pyridinecarboxylate], for which the “Visual Weed Control (%) - 25 DAA ECHOR Obs” value in assay [2] (Imazethapyr ammonium 8.75 gae/ha) came to 0%; in assay [2] (Imazethapyr ammonium 17.5 gae/ha) it was 0%; in assay [2] (Imazethapyr ammonium 35 gae/ha), 25%.
Turning to `COc1c(Cl)ccc(-c2nc(C(=O)O)c(Cl)c(N)c2F)c1F` [Compound A Acid, 4-amino-3-chloro-6-(4-chloro-2-fluoro-3-methoxyphenyl)-5-fluoropyridine-2-carboxylic acid], the “Visual Weed Control (%) - 25 DAA CHOR Obs” value in assay [2] (Compound A Acid 8.75 gae/ha) came to 0%; in assay [2] (Compound A Acid 17.5 gae/ha), 0%; in assay [2] (Compound A Acid 35 gae/ha), 10%. The figures for the “Visual Weed Control (%) - 25 DAA ECHOR Obs” value in assay [2] (Compound A Acid 8.75 gae/ha), in assay [2] (Compound A Acid 17.5 gae/ha) and in assay [2] (Compound A Acid 35 gae/ha) were 0%, 0% and 10%, respectively. For the same molecule, the “Visual Weed Control (%) - 22 DAA ECHOR Obs” value is on record as 15% in assay [2] (Compound A Acid 10.6 gae/ha) and 40% in assay [2] (Compound A Acid 42.4 gae/ha). Moreover, the “Visual Weed Control (%) - 19 DAA ECHOR Obs” value in assay [2] (Compound A Acid 42 gae/ha) is recorded as 15%.
On to `COc1c(Cl)ccc(-c2nc(C(=O)OCc3ccccc3)c(Cl)c(N)c2F)c1F` [Compound A Benzyl Ester, benzyl ester of 4-amino-3-chloro-5-fluoro-6-(4-chloro-2-fluoro-3-methoxy-phenyl)pyridine-2-carboxylic acid], for which the “Visual Weed Control (%) - 22 DAA CYPIR Obs” value in assay [1] (Compound A Benzyl Ester 8 gae/ha) was 20% and 30%; in assay [1] (Compound A Benzyl Ester 16 gae/ha), 85%. In addition, the “Visual Weed Control (%) - 25 DAA CYPIR Obs” value in assay [1] (setting [3]) worked out at 75%. In addition, in assay [2] (setting [3]), the “Visual Weed Control (%) - 25 DAA ECHOR Obs” value was determined as 0%. Also, the “Visual Weed Control (%) - 22 DAA ECHOR Obs” value in assay [2] (Compound A Benzyl Ester 17.5 gae/ha) came out at 30%.
